Earlier results in US20230240962A1, “METHOD FOR DYEING KERATINOUS MATERIAL, COMPRISING THE USE OF AN ORGANOSILICON COMPOUND, AN ALKYL(POLY)GLYCOSIDE, A DYEING COMPOUND AND A POST-TREATMENT AGENT” (Henkel AG & Co. KGaA, priority 2020, published 2023).

Details: 25° C.

Row | solubility in water (in words) | SMILES | solubility in water
1 |  | Nc1cc(S(=O)(=O)[O-])cc2cc(S(=O)(=O)[O-])c(N=Nc3ccccc3)c(O)c12.[Na+].[Na+] [Acid Red 33, disodium salt of 5-amino-4-hydroxy-3-(phenylazo)-naphthalene-2,7-disulphonate] | 2500 µg/mL
2 | highly soluble | O=C([O-])C1=NN(c2ccc(S(=O)(=O)[O-])cc2)C(=O)C1N=Nc1ccc(S(=O)(=O)[O-])cc1.[Na+].[Na+].[Na+] (centres unmarked) [Acid Yellow 23, trisodium salt of 4,5-dihydro-5-oxo-1-(4-sulfophenyl)-4-((4-sulfophenyl)azo)-1H-pyrazole-3-carboxylic acid] | 
3 |  | CCN(Cc1cccc(S(=O)(=O)[O-])c1)c1ccc(C(=C2C=CC(=[N+](CC)Cc3cccc(S(=O)(=O)[O-])c3)C=C2)c2ccccc2S(=O)(=O)[O-])cc1.[Na+].[Na+] [Acid Blue 9] | more than 20 wt. %
4 |  | O=S(=O)([O-])c1ccc(N=Nc2c(O)ccc3ccccc23)cc1.[Na+] [Acid Orange 7, sodium salt of 4-[(2-hydroxy-1-naphthyl)azo]benzene sulphonate] | more than 7 g/L
5 |  | O=C([O-])c1c(Cl)c(Cl)c(Cl)c(Cl)c1-c1c2c(Br)cc(=O)c(Br)c-2oc2c(Br)c(O)cc(Br)c12.O=C([O-])c1c(Cl)c(Cl)c(Cl)c(Cl)c1-c1c2c(Br)cc(=O)c(Br)c-2oc2c(Br)c(O)cc(Br)c12.[Na+].[Na+] [Acid Red 92, disodium salt of 3,4,5,6-tetrachloro-2-(1,4,5,8-tetrabromo-6-hydroxy-3-oxoxanthen-9-yl)benzoic acid] | greater than 10 g/L
